Data: ChEMBL document CHEMBL4190327, “Substituted methoxybenzyl-sulfonyl-1H-benzo[d]imidazoles evaluated as effective H+/K+-ATPase inhibitors and anti-ulcer therapeutics” (Eur J Med Chem, 2017)

What was measured:
[1] = Inhibition of hydrogen potassium ATPase in goat stomach mucosal membrane assessed as decrease in inorganic phosphate production using ATP as substrate after 10 to 15 mins by spectrophotometric analysis; format: cell membranes, Capra hircus
Capra hircus = species: Capra hircus; assay: Inhibition of hydrogen potassium ATPase in goat stomach mucosal membrane assessed as decrease in inorganic phosphate production using ATP as substrate after 10 to 15 mins by spectrophotometric analysis relative to omeprazole; format: cell membranes; design: concentration or dose not given beside the values
Erythrocyte [2] = assay: Anti-inflammatory activity in human RBC assessed as membrane stabilization relative to control; format: functional; design: concentration or dose not given beside the values
Erythrocyte [3] = assay: Anti-inflammatory activity in human RBC assessed as membrane stabilization; format: functional, cell-based

With `COc1ccc2[nH]c(S(=O)(=O)Cc3ccc(OCc4nccc(OC)c4OC)c(OC)c3)nc2c1` the IC50 [1] was 918 nM, the Ki [1] was 25 to 1240 nM and the inhibition (Capra hircus) was 78.2%. The Activity (Erythrocyte [2]) was 78.42% and the IC50 (Erythrocyte [3]) was 898 nM.

For `COCCCOc1ccnc(COc2ccc(CS(=O)(=O)c3nc4ccccc4[nH]3)cc2OC)c1C`, the IC50 [1] was 355 nM, the Ki [1] was 25 to 1240 nM and the inhibition (Capra hircus) was 81%. The Activity (Erythrocyte [2]) was 88.45% and the IC50 (Erythrocyte [3]) was 355 nM.

`COc1cc(CS(=O)(=O)c2nc3ccccc3[nH]2)ccc1OCc1nccc(OCC(F)(F)F)c1C` showed an IC50 [1] of 1290 nM, a Ki [1] of 25 to 1240 nM and an inhibition (Capra hircus) of 74.9%. The Activity (Erythrocyte [2]) was 74.21% and the IC50 (Erythrocyte [3]) was 1310 nM.

In the case of `COc1cc(CS(=O)(=O)c2nc3ccccc3[nH]2)ccc1OCc1nccc(OC)c1OC`, the IC50 [1] is reported as 228 nM, the Ki [1] is reported as 25 to 1240 nM and the inhibition (Capra hircus) is reported as 92%. For the same compound, the Activity (Erythrocyte [2]) was 91.12% and the IC50 (Erythrocyte [3]) was 212 nM.

`COc1ccc2[nH]c(S(=O)(=O)Cc3ccc(OCc4nccc(OCC(F)(F)F)c4C)c(OC)c3)nc2c1` gave an IC50 [1] of 1460 nM, a Ki [1] of 25 to 1240 nM and an inhibition (Capra hircus) of 72%. The Activity (Erythrocyte [2]) was 71.58% and the IC50 (Erythrocyte [3]) was 1760 nM.

`COc1cc(CS(=O)(=O)c2nc3cc(OC(F)F)ccc3[nH]2)ccc1OCc1ncc(C)c(OC)c1C` showed an IC50 [1] of 1360 nM, a Ki [1] of 25 to 1240 nM and an inhibition (Capra hircus) of 73.2%. It also gave an Activity (Erythrocyte [2]) of 73.56% and an IC50 (Erythrocyte [3]) of 1420 nM.

Compound `COCCCOc1ccnc(COc2ccc(CS(=O)(=O)c3nc4cc(OC)ccc4[nH]3)cc2OC)c1C` has an IC50 [1] of 814 nM, a Ki [1] of 25 to 1240 nM and an inhibition (Capra hircus) of 80.2%. For the same compound, the Activity (Erythrocyte [2]) was 79.41% and the IC50 (Erythrocyte [3]) was 817 nM.

Compound `O=C(O)Cc1ccccc1Nc1c(Cl)cccc1Cl` [DICLOFENAC] has an Activity (Erythrocyte [2]) of 82.24% and an IC50 (Erythrocyte [3]) of 942 nM.

`COc1ccc2[nH]c([S+]([O-])Cc3ncc(C)c(OC)c3C)nc2c1` (centres undefined) [OMEPRAZOLE] showed an IC50 [1] of 980 to 1010 nM and an inhibition (Capra hircus) of 82.1%.

Compound `COc1ccc2[nH]c(S(=O)(=O)Cc3ccc(OCc4ncc(C)c(OC)c4C)c(OC)c3)nc2c1` has an IC50 [1] of 1150 nM, a Ki [1] of 25 to 1240 nM and an inhibition (Capra hircus) of 76.3%. It also gave an Activity (Erythrocyte [2]) of 76.23% and an IC50 (Erythrocyte [3]) of 1210 nM.

For `COc1cc(CS(=O)(=O)c2nc3cc(OC(F)F)ccc3[nH]2)ccc1OCc1nccc(OC)c1OC`, the IC50 [1] was 198 nM, the Ki [1] was 25 to 1240 nM and the inhibition (Capra hircus) was 94.4%. The Activity (Erythrocyte [2]) was 94.11% and the IC50 (Erythrocyte [3]) was 186 nM.

`COc1cc(CS(=O)(=O)c2nc3ccccc3[nH]2)ccc1OCc1ncc(C)c(OC)c1C` gave an IC50 [1] of 1680 nM, a Ki [1] of 25 to 1240 nM and an inhibition (Capra hircus) of 70.5%. It also gave an Activity (Erythrocyte [2]) of 70.41% and an IC50 (Erythrocyte [3]) of 1820 nM.

`COCCCOc1ccnc(COc2ccc(CS(=O)(=O)c3nc4cc(OC(F)F)ccc4[nH]3)cc2OC)c1C` showed an IC50 [1] of 124 nM, a Ki [1] of 25 to 1240 nM and an inhibition (Capra hircus) of 96.3%. For the same compound, the Activity (Erythrocyte [2]) was 96.42% and the IC50 (Erythrocyte [3]) was 142 nM.

Compound `COc1cc(CS(=O)(=O)c2nc3cc(OC(F)F)ccc3[nH]2)ccc1OCc1nccc(OCC(F)(F)F)c1C` has an IC50 [1] of 1660 nM, a Ki [1] of 25 to 1240 nM and an inhibition (Capra hircus) of 70.6%. For the same compound, the Activity (Erythrocyte [2]) was 70.28% and the IC50 (Erythrocyte [3]) was 1880 nM.
